Here are results for one molecule from PMC6094957, “BdorOR88a Modulates the Responsiveness to Methyl Eugenol in Mature Males of Bactrocera dorsalis (Hendel)” (Frontiers in Physiology, 2018).

Broadly, the EC50 is the midpoint of the concentration-response curve. A lower EC50 goes with a more potent agent.

For assay [1], the target named is T1, BdorOR63a-1/BdorOrco (Bactrocera dorsalis, UniProt A0A0G2UMW5).
T1 construct: gene OR63a-1; full-length OR63a-1 (1,248 nt, 415 aa) co-expressed with BdorOrco from pCS2+ cRNAs in Xenopus laevis oocytes; with Odorant receptor coreceptor
T1 sequence (A0A0G2UMW5 1-415): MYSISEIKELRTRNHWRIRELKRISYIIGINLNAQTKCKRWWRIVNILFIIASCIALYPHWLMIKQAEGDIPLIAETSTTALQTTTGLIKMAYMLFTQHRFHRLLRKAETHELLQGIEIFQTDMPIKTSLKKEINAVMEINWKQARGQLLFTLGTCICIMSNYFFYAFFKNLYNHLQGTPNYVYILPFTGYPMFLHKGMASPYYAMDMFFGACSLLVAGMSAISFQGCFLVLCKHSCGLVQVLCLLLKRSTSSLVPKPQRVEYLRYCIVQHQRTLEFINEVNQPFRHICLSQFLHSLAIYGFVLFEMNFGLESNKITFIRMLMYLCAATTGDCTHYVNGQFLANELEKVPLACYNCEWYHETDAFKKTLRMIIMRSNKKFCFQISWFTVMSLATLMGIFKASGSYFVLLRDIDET
T1 sequence (B2Z9Z0 1-473 partner): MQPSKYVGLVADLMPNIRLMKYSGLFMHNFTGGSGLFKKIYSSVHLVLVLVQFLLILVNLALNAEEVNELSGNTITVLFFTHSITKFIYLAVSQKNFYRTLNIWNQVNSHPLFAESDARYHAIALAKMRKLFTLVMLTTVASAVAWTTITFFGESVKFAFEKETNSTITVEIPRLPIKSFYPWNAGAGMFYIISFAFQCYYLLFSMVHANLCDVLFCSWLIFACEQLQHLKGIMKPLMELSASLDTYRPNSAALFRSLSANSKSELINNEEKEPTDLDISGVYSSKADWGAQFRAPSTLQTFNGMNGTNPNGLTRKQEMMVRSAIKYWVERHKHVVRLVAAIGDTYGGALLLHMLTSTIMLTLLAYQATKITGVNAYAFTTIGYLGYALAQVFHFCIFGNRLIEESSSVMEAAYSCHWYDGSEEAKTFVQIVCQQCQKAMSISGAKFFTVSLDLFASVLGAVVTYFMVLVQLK
As to the kind of experiment: two-electrode voltage clamp, Xenopus oocytes. Particulars: weak response at 1 × 10^-3 M ME; co-expressed BdorOrco; holding potential -80 mV; Ringer's pH 7.6. Format: cell-based.

The target of assay [2] is T2, BdorOR88a/BdorOrco (Bactrocera dorsalis, UniProt A0A0G2UKI5).
T2 construct: gene OR88a; full-length OR88a (1,245 nt, 414 aa) co-expressed with BdorOrco from pCS2+ cRNAs in Xenopus laevis oocytes; with Odorant receptor coreceptor
T2 sequence (A0A0G2UKI5 1-414): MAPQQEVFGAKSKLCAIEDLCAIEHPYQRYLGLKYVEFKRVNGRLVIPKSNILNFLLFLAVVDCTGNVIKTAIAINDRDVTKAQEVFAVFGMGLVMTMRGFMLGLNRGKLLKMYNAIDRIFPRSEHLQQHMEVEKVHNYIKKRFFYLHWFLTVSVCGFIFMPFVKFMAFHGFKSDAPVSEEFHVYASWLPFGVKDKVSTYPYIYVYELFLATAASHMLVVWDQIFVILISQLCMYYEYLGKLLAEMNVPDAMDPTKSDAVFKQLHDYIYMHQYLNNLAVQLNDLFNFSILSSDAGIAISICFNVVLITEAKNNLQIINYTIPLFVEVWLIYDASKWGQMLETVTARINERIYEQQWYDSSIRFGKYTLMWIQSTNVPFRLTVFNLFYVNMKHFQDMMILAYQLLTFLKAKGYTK
T2 sequence (B2Z9Z0 1-473 partner): T1 sequence (B2Z9Z0 1-473 partner)
As to the kind of experiment: two-electrode voltage clamp, Xenopus oocytes. Format: cell-based. An excerpt:
two-electrode voltage clamp, Xenopus oocytes on BdorOR88a/BdorOrco | half the maximal effective concentration
(In general: In two-electrode clamp one electrode senses voltage and the other passes current.)

On to `C=CCc1ccc(OC)c(OC)c1` [ME, methyl eugenol], for which, in assay [1], the “current at 1 × 10^-3 M” value is recorded as ~ 30 nA. Further, the EC50 in assay [2] stood at 28.3 µM.
